Source: PMC6406325, “ATP- and Polyphosphate-Dependent Glucokinases from Aerobic Methanotrophs” (Microorganisms, 2019)

Columns and labels:
Assay type in all cases: biochemical, Methylomonas sp. 12
[1] = tested on: T1, Nc1ncnc2c1ncn2[C@@H]1O[C@H](COP(=O)(O)OP(=O)(O)OP(=O)(O)O)[C@@H](O)[C@H]1O; test: purified protein; details: saturating glucose, Mg2+, pH 7.5, 30 °C
T1 construct: full-length, His6-tagged (N-terminal), pET30(a)+ in E. coli Rosetta (DE3), Ni-NTA; gene 990 bp; di- to hexamers

[2] = target: T2, polyP-Glk (Methylomonas sp., UniProt A0A3G4RHV5); test: glucose 6-phosphate dehydrogenase coupled NADP+ reduction at […] nm; details: saturating polyP (n=45); Mg2+; pH 8.5; 28 °C
T2 construct: gene pglk; full-length, His6-tagged (N-terminal), E. coli Rosetta (DE3), Ni-NTA; gene 795 bp; dimer with polyP
T2 sequence (A0A3G4RHV5 1-264): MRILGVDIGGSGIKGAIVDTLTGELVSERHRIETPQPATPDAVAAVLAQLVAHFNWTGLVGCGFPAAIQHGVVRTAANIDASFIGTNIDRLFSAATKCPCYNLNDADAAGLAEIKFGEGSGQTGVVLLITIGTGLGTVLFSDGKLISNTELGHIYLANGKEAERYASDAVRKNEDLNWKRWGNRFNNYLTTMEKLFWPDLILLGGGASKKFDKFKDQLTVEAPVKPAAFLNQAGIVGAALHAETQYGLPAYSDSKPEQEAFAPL

[3] = target: T3, ATP-Glk (Methylomonas sp., UniProt A0A3G4RI75); test: as above; details: saturating ATP; Mg2+; pH 7.5; 30 °C
T3 construct: full-length, His6-tagged (N-terminal), pET30(a)+ in E. coli Rosetta (DE3), Ni-NTA; gene 990 bp; di- to hexamers
T3 sequence (A0A3G4RI75 1-329): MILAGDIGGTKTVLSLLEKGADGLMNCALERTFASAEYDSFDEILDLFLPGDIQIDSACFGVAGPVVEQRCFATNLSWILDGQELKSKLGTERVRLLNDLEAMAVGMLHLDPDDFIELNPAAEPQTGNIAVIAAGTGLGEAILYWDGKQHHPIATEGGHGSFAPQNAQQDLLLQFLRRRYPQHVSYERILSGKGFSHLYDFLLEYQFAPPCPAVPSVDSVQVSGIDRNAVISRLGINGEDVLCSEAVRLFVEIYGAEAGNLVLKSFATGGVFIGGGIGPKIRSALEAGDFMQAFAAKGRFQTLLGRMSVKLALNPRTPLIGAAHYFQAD

[4] = target: T3, ATP-Glk; test: effect on glucokinase activity with ATP and glucose
Source text: effect on glucokinase activity with ATP and glucose on ATP-Glk

[5] = target: T2, polyP-Glk; test: effect on glucokinase activity with polyP and glucose; details: polyP (n=45) and glucose as substrates; activator, not a phosphoryl donor; ATP concentration not printed in table (10 mM elsewhere in the source)
Source text: effect on glucokinase activity with polyP and glucose on polyP-Glk

ATP-Glk (Methylomonas methanica)
Km [1]: 78 ± 5.6 µM | kcat [1]: 0.126 s⁻¹ | kcat/Km [1]: 1610 M⁻¹ s⁻¹

OC[C@H]1OC(O)[C@H](O)[C@@H](O)[C@@H]1O (stereo partly shown) [glucose]
Km [2]: 450 ± 120 µM | Km [3]: 80 ± 7 µM

Nc1ncnc2c1ncn2[C@@H]1O[C@H](COP(=O)(O)OP(=O)(O)O)[C@@H](O)[C@H]1O [ADP]
activity at 5000 µM [4]: 48.9%

Nc1ncnc2c1ncn2[C@@H]1O[C@H](COP(=O)(O)OP(=O)(O)OP(=O)(O)O)[C@@H](O)[C@H]1O [ATP]
PolyP-Glk ** [5]: 155.0%
